Data published in US20240190855A1 (Relay Therapeutics, Inc., priority 2021, published 2024).

Target: T1, CDK2/Cyclin E complex (Homo sapiens, UniProt P24941)
T1 construct: purchased Eurofins 14-475
Experiment: CDK2/Cyclin E fluorescence-based microfluidic mobility shift assay (CDK2 Biochemical Caliper Assay)
Conditions: read-out: Biochemical CDK2/CyclinE Caliper IC50
In short: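 Wild-type CDK2/Cyclin E was preincubated with compound and ATP for 30 min at RT before the 5-FAM-QSPKKG peptide was added. Final concentrations were 0.1 nM enzyme, 2000 uM ATP, 1.5 uM peptide and 1% DMSO. After 20 hr at RT and EDTA stop, substrate conversion was read by microfluidic mobility shift over an 11-point, 3-fold dilution series.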

SMILES	IC50 [nM]
COCc1cc2c(Nc3cc([C@H]4C[C@@H](OC(=O)N[C@@H]5CC5(C)C)CO4)[nH]n3)nccn2n1 [Example 679]	≤ 100
COCc1cc2c(Nc3cc([C@H]4C[C@@H](OC(=O)NC5(CF)CC5)CO4)[nH]n3)nccn2n1 [Example 680]	≤ 100
COCc1nc2ccnc(Nc3cc([C@H]4C[C@@H](OC(=O)NC5(C)CC5)CO4)[nH]n3)c2s1 [Example 681]	≤ 100
COCc1nc2ccnc(Nc3cc([C@H]4C[C@@H](OC(=O)NC5(COC)CC5)CO4)[nH]n3)c2s1 [Example 682]	≤ 100
COCc1cc2c(Nc3cc([C@H]4C[C@@H](OC(=O)NC5COC5)CO4)[nH]n3)nccn2n1 [Example 683]	250 to 1000
COCc1cc2c(Nc3cc([C@H]4C[C@@H](OC(=O)NC56CCC(CC5)CC6)CO4)[nH]n3)nccn2n1 [Example 684]	≤ 100
COCc1cc2c(Nc3cc([C@H]4C[C@@H](OC(=O)N[C@H](C)C5(C)COC5)CO4)[nH]n3)nccn2n1 [Example 685]	1000 to 100000
COCc1cc2c(Nc3cc([C@H]4C[C@@H](OC(=O)N[C@@H](C)C5COC5)CO4)[nH]n3)nccn2n1 [Example 686]	100 to 250
COCc1cc2c(Nc3cc([C@H]4C[C@@H](OC(=O)N[C@H]5C[C@@H]5C)CO4)[nH]n3)nccn2n1 [Example 687]	≤ 100
COCc1cc2c(Nc3cc([C@H]4C[C@@H](OC(=O)N[C@@H](C)C5(C)COC5)CO4)[nH]n3)nccn2n1 [Example 688]	100 to 250
COCc1cc(C(=O)Nc2cc([C@H]3C[C@@H](COc4[nH]ncc4C(C)C)C3)[nH]n2)n(C)n1 [Example 689]	≤ 100
COCc1cc2c(Nc3cc([C@H]4C[C@@H](COc5nncn5C5(C)CC5)C4)[nH]n3)nccn2n1 [Example 690]	≤ 100
COCc1cc(C(=O)Nc2cc([C@H]3C[C@@H](COc4[nH]ncc4C(C)(C)C)C3)[nH]n2)n(C)n1 [Example 691]	≤ 100
COCc1nc2ccnc(Nc3cc([C@H]4C[C@@H](OC(=O)NC(C)(C)C)CO4)[nH]n3)c2s1 [Example 692]	≤ 100
COCc1cc2c(Nc3cc([C@H]4C[C@@H](OC(=O)N[C@H]5CC[C@@H](OC)CC5)CO4)[nH]n3)nccn2n1 [Example 693]	1000 to 100000
COCc1cc2c(Nc3cc([C@H]4C[C@@H](OC(=O)NCCC5CCOCC5)CO4)[nH]n3)nccn2n1 [Example 694]	1000 to 100000
COCc1cc2c(Nc3cc([C@H]4C[C@@H](OC(=O)NC(C)(C)COC)CO4)[nH]n3)nccn2n1 [Example 695]	≤ 100
COCc1nc2ccnc(Nc3cc([C@H]4C[C@@H](OC(=O)NC5(C)COC5)CO4)[nH]n3)c2s1 [Example 696]	≤ 100
COCc1cc2c(Nc3cc([C@H]4C[C@@H](OC(=O)N[C@@H]5C[C@H]5C)CO4)[nH]n3)nccn2n1 [Example 697]	≤ 100
COCc1cc2c(Nc3cc([C@H]4C[C@@H](OC(=O)NC5(C#N)CC5)CO4)[nH]n3)nccn2n1 [Example 698]	≤ 100
CC(C)n1cnnc1O[C@H]1CO[C@@H](c2cc(NC(=O)c3cc(COC(F)(F)F)nn3C)n[nH]2)C1 [Example 699]	≤ 100
COCc1cc2c(Nc3cc([C@H]4C[C@@H](OC(=O)NC5(C)COC5)CO4)[nH]n3)nccn2n1 [Example 700]	≤ 100
COCc1nc2ccnc(Nc3cc([C@H]4C[C@@H](OC(=O)NC(C)(C)COC)CO4)[nH]n3)c2s1 [Example 701]	≤ 100

SMILES	IC50 [nM]
COCc1cc2c(Nc3cc([C@H]4C[C@@H](OC(=O)NC5(C6CC6)CC5)CO4)[nH]n3)nccn2n1 [Example 702]	≤ 100
COCc1cc2c(Nc3cc([C@H]4C[C@@H](OC(=O)NC(C)(C)CN5CCOCC5)CO4)[nH]n3)nccn2n1 [Example 703]	250 to 1000
Cn1nc(COC(F)(F)F)cc1C(=O)Nc1cc([C@H]2C[C@@H](OC(=O)NC3(C)CC3)CO2)[nH]n1 [Example 704]	≤ 100
CCC1(NC(=O)O[C@H]2CO[C@@H](c3cc(Nc4nccn5nc(COC)cc45)n[nH]3)C2)CC1 [Example 705]	≤ 100
CC(C)NC(=O)O[C@H]1CO[C@@H](c2cc(NC(=O)c3cc(COC(F)(F)F)nn3C)n[nH]2)C1 [Example 706]	≤ 100
COCc1cc2c(Nc3cc([C@H]4C[C@@H](Oc5nncn5C5(C)CC5)CO4)[nH]n3)nccn2n1 [Example 707]	≤ 100
COCc1cc2c(Nc3cc([C@H]4C[C@@H](COc5[nH]ncc5C(C)(C)C)C4)[nH]n3)nccn2n1 [Example 708]	≤ 100
COCc1cc2c(Nc3cc([C@H]4C[C@@H](Oc5nncn5C(C)(C)C)CO4)[nH]n3)nccn2n1 [Example 709]	≤ 100
COCc1cc2c(Nc3cc([C@H]4C[C@@H](OC(=O)NC56CC(F)(C5)C6)CO4)[nH]n3)nccn2n1 [Example 710]	≤ 100
COCc1cc2c(Nc3cc([C@H]4C[C@@H](OC(=O)N[C@H](C)C5COC5)CO4)[nH]n3)nccn2n1 [Example 711]	250 to 1000
COCc1cc2c(Nc3cc([C@H]4C[C@@H](OC(=O)NC56CC(Cl)(C5)C6)CO4)[nH]n3)nccn2n1 [Example 712]	≤ 100
Cn1nc(COC(F)(F)F)cc1C(=O)Nc1cc([C@H]2C[C@@H](OC(=O)NC(C)(C)C)CO2)[nH]n1 [Example 713]	≤ 100
CC1(NC(=O)O[C@H]2CO[C@@H](c3cc(Nc4nccn5nc(COC(F)F)cc45)n[nH]3)C2)CC1 [Example 714]	≤ 100
COCc1cc2c(Nc3cc([C@@H]4C[C@H](Oc5nncn5C(C)C)CO4)[nH]n3)nccn2n1 [Example 715]	≤ 100
COCc1cc2c(Nc3cc([C@H]4C[C@@H](OC(=O)NC56CCC(CC5)OC6)CO4)[nH]n3)nccn2n1 [Example 716]	≤ 100
COCc1cc2c(Nc3cc([C@H]4C[C@@H](OC(=O)NC(C)(C)C#N)CO4)[nH]n3)nccn2n1 [Example 717]	≤ 100
COCc1cc2c(Nc3cc([C@H]4C[C@@H](COc5[nH]ncc5C(C)C)C4)[nH]n3)nccn2n1 [Example 718]	≤ 100
COCc1cc2c(Nc3cc([C@@H]4C[C@H](Oc5nncn5C5(C)CC5)CO4)[nH]n3)nccn2n1 [Example 719]	≤ 100
COCc1cc2c(Nc3cc([C@H]4C[C@@H](OC(=O)N[C@H](C)C(F)(F)F)CO4)[nH]n3)nccn2n1 [Example 720]	≤ 100
COCc1cc2c(Nc3cc([C@H]4C[C@@H](OC(=O)N[C@@H](C)C(F)(F)F)CO4)[nH]n3)nccn2n1 [Example 721]	≤ 100
CC1(NC(=O)O[C@H]2CO[C@@H](c3cc(Nc4ncnn5cccc45)n[nH]3)C2)CC1 [Example 722]	≤ 100
CC1(NC(=O)O[C@H]2CO[C@@H](c3cc(Nc4ccc5c(n4)C(C)(C)NC5=O)n[nH]3)C2)CC1 [Example 723]	≤ 100
Cn1ncc2cnc(Nc3cc([C@H]4C[C@@H](OC(=O)NC5(C)CC5)CO4)[nH]n3)cc21 [Example 724]	≤ 100

SMILES	IC50 [nM]
CC1(NC(=O)O[C@H]2CO[C@@H](c3cc(Nc4ncnc5sncc45)n[nH]3)C2)CC1 [Example 725]	≤ 100
COCc1cc2c(Nc3cc([C@H]4C[C@@H](OC(=O)C5CCC5(C)C)CO4)[nH]n3)nccn2n1 (some centres unmarked) [Example 726]	≤ 100
CC1(NC(=O)O[C@H]2CO[C@@H](c3cc(Nc4ccn5nccc5n4)n[nH]3)C2)CC1 [Example 727]	≤ 100
C#CC1(NC(=O)O[C@H]2CO[C@@H](c3cc(Nc4nccn5nc(COC)cc45)n[nH]3)C2)CC1 [Example 728]	≤ 100
CC1(NC(=O)O[C@H]2CO[C@@H](c3cc(Nc4nccc5[nH]cnc45)n[nH]3)C2)CC1 [Example 730]	250 to 1000
CC1(NC(=O)O[C@H]2CO[C@@H](c3cc(Nc4ccc5nccn5n4)n[nH]3)C2)CC1 [Example 732]	≤ 100
COCc1cc2c(Nc3cc([C@H]4C[C@@H](OC(=O)N5CC6CC(C6)C5)CO4)[nH]n3)nccn2n1 [Example 733]	100 to 250
Cn1cc2ccnc(Nc3cc([C@H]4C[C@@H](OC(=O)NC5(C)CC5)CO4)[nH]n3)c2n1 [Example 734]	1000 to 100000
CC1(NC(=O)O[C@H]2CO[C@@H](c3cc(Nc4nccc5nccn45)n[nH]3)C2)CC1 [Example 735]	≤ 100
CC[C@H](C)NC(=O)O[C@H]1CO[C@@H](c2cc(Nc3ccc4c(n3)C(C)(C)NC4=O)n[nH]2)C1 [Example 736]	≤ 100
CC1(NC(=O)O[C@H]2CO[C@@H](c3cc(Nc4ccnc5nc[nH]c45)n[nH]3)C2)CC1 [Example 737]	100 to 250
CC1(NC(=O)O[C@H]2CO[C@@H](c3cc(Nc4ncnc5[nH]ccc45)n[nH]3)C2)CC1 [Example 738]	250 to 1000
C[C@H](NC(=O)O[C@H]1CO[C@@H](c2cc(Nc3ccc4c(n3)C(C)(C)NC4=O)n[nH]2)C1)C1CC1 [Example 740]	≤ 100
COCc1cc2c(Nc3cc([C@H]4C[C@@H](Oc5nncn5C5(C(F)(F)F)CC5)CO4)[nH]n3)nccn2n1 [Example 741]	100 to 250
COCc1cc2c(Nc3cc([C@@H]4C[C@H](Oc5nncn5C(C)(C)C)CO4)[nH]n3)nccn2n1 [Example 742]	≤ 100
Cn1cnc2c(Nc3cc([C@H]4C[C@@H](OC(=O)NC5(C)CC5)CO4)[nH]n3)nccc21 [Example 743]	1000 to 100000
CC(C)c1nc(Nc2cc([C@H]3C[C@@H](OC(=O)NC4(C)CC4)CO3)[nH]n2)c2cc[nH]c2n1 [Example 744]	100 to 250
Cn1cc2c(Nc3cc([C@H]4C[C@@H](OC(=O)NC5(C)CC5)CO4)[nH]n3)nccc2n1 [Example 745]	100 to 250
C[C@H](NC(=O)O[C@H]1CO[C@@H](c2cc(NC(=O)c3cc(COC(F)(F)F)nn3C)n[nH]2)C1)C1CC1 [Example 746]	≤ 100
Cn1ncc2c(Nc3cc([C@H]4C[C@@H](OC(=O)NC5(C)CC5)CO4)[nH]n3)nccc21 [Example 747]	250 to 1000
CC1(NC(=O)O[C@H]2CO[C@@H](c3cc(Nc4ccnc5nccn45)n[nH]3)C2)CC1 [Example 748]	≤ 100
CC(C)n1cnnc1O[C@H]1CO[C@@H](c2cc(Nc3nccc4nccn34)n[nH]2)C1 [Example 749]	100 to 250
